# Data published in patent publication US7928139B2 (Amgen Inc., priority 2006, dated 2011).
# Biological target: HIF PHD2 (Homo sapiens, UniProt Q9GZT9)
# Assay: PHD2 inhibition assay (TR-FRET, VCB-Eu detection of hydroxylated P564-HIF1α peptide)
# Assay type: biochemical
# Conditions: 2 nM PHD2, 100 nM P564-HIF1α peptide, 0.25 μM 2-oxoglutarate, 100 μM FeCl2, 2 mM ascorbic acid
# Summary of the method: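 Human PHD2 (2 nM final) preincubated 1 h at room temperature with compound and 100 μM FeCl2 in pH 6 MES buffer, 5% DMSO final. Reaction with 100 nM biotinylated P564-HIF1α peptide, 2 mM ascorbate and 0.25 μM 2-oxoglutarate for 1 h, stopped with succinate. Hydroxylation read by TR-FRET (VCB-Eu/streptavidin-APC, 655/615 nm); IC50 from 4-parameter fit of percent of control.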
# HIF PHD2, sequence (Q9GZT9 whole entry): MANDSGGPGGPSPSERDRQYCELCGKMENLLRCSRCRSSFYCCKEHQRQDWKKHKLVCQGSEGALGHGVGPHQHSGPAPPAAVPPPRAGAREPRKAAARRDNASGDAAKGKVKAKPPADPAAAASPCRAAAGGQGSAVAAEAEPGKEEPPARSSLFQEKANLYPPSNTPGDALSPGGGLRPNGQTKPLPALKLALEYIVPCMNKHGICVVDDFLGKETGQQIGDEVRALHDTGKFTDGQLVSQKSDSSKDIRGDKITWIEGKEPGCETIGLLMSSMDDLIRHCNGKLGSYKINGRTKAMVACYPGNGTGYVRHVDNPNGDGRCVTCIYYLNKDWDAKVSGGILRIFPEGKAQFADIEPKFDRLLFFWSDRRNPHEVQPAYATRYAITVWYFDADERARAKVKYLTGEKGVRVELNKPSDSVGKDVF
row,Compound,IC50 [nM]
1,"CC1(C)C(=O)C(C(=O)NCC(=O)O)=C(O)c2ccc(C#Cc3ccccc3)cc21 [Example 110, 2-(2-Hydroxy-1,1-dimethyl-4-oxo-7-(2-phenylethynyl)-1,4-dihydronaphthalene-3-carboxamido)acetic acid]",100 to 500
2,"O=C(O)CNC(=O)C1=C(O)c2cccc(Cl)c2C2(CCOCC2)C1=O [Example 111, N-((8-Chloro-2-hydroxy-4-oxo-2′,3′,5′,6′-tetrahydro-4H-spiro[naphthalene-1,4′-pyran]-3-yl)carbonyl)glycine]",< 100
3,"O=C(O)CNC(=O)C1=C(O)c2c(Cl)cccc2C2(CCOCC2)C1=O [Example 112, N-((5-Chloro-2-hydroxy-4-oxo-2′,3′,5′,6′-tetrahydro-4H-spiro[naphthalene-1,4′-pyran]-3-yl)carbonyl)glycine]",< 100
4,"O=C(O)CNC(=O)C1=C(O)c2ccc(F)c(F)c2C2(CCOCC2)C1=O [Example 113, N-((7,8-Difluoro-2-hydroxy-4-oxo-2′,3′,5′,6′-tetrahydro-4H-spiro[naphthalene-1,4′-pyran]-3-yl)carbonyl)glycine]",< 100
5,"CCCCCCCCc1ccc2c(c1)C(C)(C)C(=O)C(C(=O)NCC(=O)O)=C2O [Example 115, 2-(2-hydroxy-1,1-dimethyl-7-octyl-4-oxo-1,4-dihydronaphthalene-3-carboxamido) acetic acid]",1000 to 10000
6,"COCC#Cc1ccc2c(c1)C(C)(C)C(=O)C(C(=O)NCC(=O)O)=C2O [Example 116, 2-(2-hydroxy-7-(3-methoxyprop-1-ynyl)-1,1-dimethyl-4-oxo-1,4-dihydronaphthalene-3-carboxamido) acetic acid]",< 100
7,"CC1(C)C(=O)C(C(=O)NCC(=O)O)=C(O)c2ccc(C#Cc3cccnc3)cc21 [Example 117, 2-(2-hydroxy-1,1-dimethyl-4-oxo-7-(2-(pyridin-3-yl)ethynyl)-1,4-dihydronaphthalene-3-carboxamido) acetic acid]",< 100
8,"CC1(C)C(=O)C(C(=O)CCC(=O)O)=C(O)c2cc(Cl)c(Cl)cc21 [Example 118, 4-(6,7-Dichloro-3-hydroxy-4,4-dimethyl-1-oxo-1,4-dihydro-2-naphthalenyl)-4-oxobutanoic acid]",100 to 500
9,"O=C(O)CCC(=O)C1=C(O)c2cc(Cl)ccc2C2(CCOCC2)C1=O [Example 119, 4-(6-Chloro-2-hydroxy-4-oxo-2′,3′,5′,6′-tetrahydro-4H-spiro[naphthalene-1,4′-pyran]-3-yl)-4-oxobutanoic acid]",< 100
10,"CC(CC(=O)O)C(=O)C1=C(O)c2cc(Cl)ccc2C2(CCOCC2)C1=O (stereo not drawn) [Example 121, 4-(6-Chloro-2-hydroxy-4-oxo-2′,3′,5′,6′-tetrahydro-4H-spiro[naphthalene-1,4′-pyran]-3-yl)-3-methyl-4-oxobutanoic acid]",1000 to 10000
11,"CC1(C#N)C(=O)C(C(=O)CCC(=O)O)=C(O)c2cc(Cl)ccc21 (stereo not drawn) [Example 123, 4-(7-chloro-4-cyano-3-hydroxy-4-methyl-1-oxo-1,4-dihydro-2-naphthalenyl)-4-oxobutanoic acid]",1000 to 10000
12,"CC1(C)C(=O)C(C(=O)CCC(=O)O)=C(O)c2ccc(F)c(F)c21 [Example 126, 4-(5,6-difluoro-1-hydroxy-4,4-dimethyl-3-oxo-3,4-dihydronaphthalen-2-yl)-4-oxobutanoic acid]",100 to 500
13,"CC1(C)C(=O)C(C(=O)CCC(=O)O)=C(O)c2ccc(Cl)cc21 [Example 127, 4-(6-chloro-1-hydroxy-4,4-dimethyl-3-oxo-3,4-dihydronaphthalen-2-yl)-4-oxobutanoic acid]",100 to 500
14,"O=C(O)CCC(=O)C1=C(O)c2ccc(Cl)cc2C2(CCOCC2)C1=O [Example 128, 4-(7-chloro-2-hydroxy-4-oxo-2′,3′,5′,6′-tetrahydro-4H-spiro[naphthalene-1,4′-pyran]-3-yl)-4-oxobutanoic acid]",< 100
15,"CC1(C#N)C(=O)C(C(=O)NCC(=O)O)=C(O)c2ccc(Cl)cc21 (stereo not drawn) [Example 129, 2-(7-chloro-1-cyano-4-hydroxy-1-methyl-2-oxo-1,2-dihydronaphthalene-3-carboxamido) acetic acid]",< 100
16,"CC1(C#N)C(=O)C(C(=O)NCC(=O)O)=C(O)c2ccc(F)cc21 (stereo not drawn) [Example 130, 2-(1-cyano-7-fluoro-4-hydroxy-1-methyl-2-oxo-1,2-dihydronaphthalene-3-carboxamido) acetic acid]",< 100
17,"CC1(C#N)C(=O)C(C(=O)NCC(=O)O)=C(O)c2cc(F)ccc21 (stereo not drawn) [Example 131, 2-(1-cyano-6-fluoro-4-hydroxy-1-methyl-2-oxo-1,2-dihydronaphthalene-3-carboxamido) acetic acid]",< 100
18,"CC1(C#N)C(=O)C(C(=O)NCC(=O)O)=C(O)c2ccc(Br)cc21 (stereo not drawn) [Example 132, 2-(7-bromo-1-cyano-4-hydroxy-1-methyl-2-oxo-1,2-dihydronaphthalene-3-carboxamido) acetic acid]",< 100
19,"CC1(C#N)C(=O)C(C(=O)NCC(=O)O)=C(O)c2cc(F)c(F)cc21 (stereo not drawn) [Example 133, 2-(1-cyano-6,7-difluoro-4-hydroxy-1-methyl-2-oxo-1,2-dihydronaphthalene-3-carboxamido) acetic acid]",< 100
20,"(R)-2-(7-bromo-1- cyano-4-hydroxy-1- methyl-2-oxo-1,2- dihydronaphthalene- 3-carboxamido) acetic acid or (S)-2-(7-bromo-1- cyano-4-hydroxy-1- methyl-2-oxo-1,2- dihydronaphthalene- 3-carboxamido) acetic acid [Example 134]",< 100
21,"(R)-2-(7-chloro-1- cyano-4-hydroxy-1- methyl-2-oxo-1,2- dihydronaphthalene- 3-carboxamido) acetic acid or (S)-2-(7-chloro-1- cyano-4-hydroxy-1- methyl-2-oxo-1,2- dihydronaphthalene- 3-carboxamido) acetic acid [Example 136]",< 100
